The record followed here is patent publication US20220251084A1, “PROGRANULIN MODULATORS AND METHODS OF USING THE SAME” (ARKUDA THERAPEUTICS, priority 2019, published 2022).

pEC50: −log10 of the molar value. Where only a bound is given, the exact number is not on record here.

One experiment has as its system progranulin (PGRN) secretion, BV-2 cells. Nature of the experiment: PGRN assay: progranulin induction cellular assay (ELISA of secreted mouse PGRN). To be noted: Mus musculus, BV-2, PGRN assay, Table C; secreted mouse PGRN in cell culture medium, ELISA. Type of experiment: cell-based. Put shortly: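 Progranulin induction measured in BV-2 cells plated at about 80% confluence the day before, given 1 h to attach, then incubated 16 h. Secreted mouse PGRN quantified by ELISA.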
(In an ELISA, binding on a coated surface is turned into a signal by an enzyme label.)
As for `N#Cc1ccc2c(c1)CCN(C(=O)N[C@@H]1CN3CCC1CC3)[C@@H]2c1ccc(F)cc1` [Compound 2015], the pEC50 is 5.82. For the molecule `O=C(OCC12CCN(CC1)CC2)N1CCc2ccccc2[C@H]1c1cccc(F)c1F` [Compound 2113], the negative logarithm of the EC50 (pEC50) was 6.22. Same read-out and setting: the result for `CNC(=O)c1ccc2c(c1)CCN(C(=O)OCC13CCN(CC1)CC3)[C@H]2c1ccc(F)cc1` [Compound 2080] reads < 5.00; that for `CO[C@H](CC12CCN(CC1)CC2)C(=O)N1CCc2ccccc2[C@@H]1c1ccc(F)cc1` [Compound 2028], < 5.00.

Turning to `O=C(OCC12CCN(CC1)CC2)N1CCc2ccccc2[C@@H]1c1ccc(OCc2cncnc2)cc1` [Compound 2149], the pEC50 was < 5.00. Same read-out and setting: the result for `COC(=O)c1ccc2c(c1)CCN(C(=O)N[C@@H]1CN3CCC1CC3)[C@@H]2c1ccc(F)cc1` [Compound 2089] reads < 5.00; that for `C#CCOc1ccc2c(c1)[C@H](c1ccc(F)cc1)N(C(=O)N[C@@H]1CN3CCC1CC3)CC2` [Compound 2115, (S)-1-(4-fluorophenyl)-7-(prop-2-yn-1-yloxy)-N—((S)-quinuclidin-3-yl)-3,4-dihydroisoquinoline-2(1H)-carboxamide], 5.08; that for `CN1CCN(C(=O)CC(=O)N2CCc3ccccc3[C@@H]2c2ccc(F)cc2)CC1` [Compound 2189, (S)-1-(1-(4-fluorophenyl)-3,4-dihydroisoquinolin-2(1H)-yl)-3-(4-methylpiperazin-1-yl) propane-1,3-dione], 5.48. On the same count and under the same terms, the same measure for `CN1CCC(COC(=O)N2CCc3ccccc3[C@H]2c2cc(F)c(F)c(F)c2)CC1` [Compound 2143]: 5.11; for `CN1CCC(OC(=O)N2CCc3ccccc3[C@@H]2c2ccc(F)cc2)CC1` [Compound 2020]: 6.64.

In turn, `COc1ncc(COc2ccc([C@@H]3c4ccccc4CCN3C(=O)OCC34CCN(CC3)CC4)cc2)cn1` [Compound 2146] gave a pEC50 of 5.79.

`CN1CCO[C@H](COC(=O)N2CCc3ccccc3[C@@H]2c2ccc(F)cc2)C1` [Compound 2004] gave a pEC50 of 5.98.

`CN1CCC(COC(=O)N2CCc3ccccc3[C@@H]2c2ccc(F)cc2)CC1` [Compound 2173]: the pEC50 was 5.49. Molecule `COCCOCCOc1ccc(COc2ccc([C@H]3c4ccccc4CCN3C(=O)OCC34CCN(CC3)CC4)cc2)cc1` [Compound 2046] gave a pEC50 of 5.76. Still for that read-out and setting: the result for `O=C(C[C@@H]1CCCNC1)N1CCc2ccccc2[C@@H]1c1ccc(F)cc1` [Compound 2188] reads 5.49; that for `CN1C[C@H]2CC[C@@H](C1)[C@H]2OC(=O)N1CCc2ccccc2[C@@H]1c1ccc(F)cc1` [Compound 2008], 6.25. Still for that read-out and setting: the result for `O=C(N[C@@H]1CCN2CCC[C@H]12)N1CCc2ccccc2[C@@H]1c1ccc(F)cc1` [Compound 2048] reads 5.72; that for `CN1C[C@H]2CC[C@@H](OC(=O)N3CCc4ccccc4[C@@H]3c3ccc(F)cc3)[C@H]2C1` (relative stereo) [Compound 2061, (1 S)-(rel-(3′aR,6′aS)-2′-methyloctahydrocyclopenta[c]pyrrol-4-yl)-1-(4-fluorophenyl)-3,4-dihydroisoquinoline-2(1H)-carboxylate], 6.49; that for `O=C(N[C@H]1CCN2CCC[C@@H]12)N1CCc2ccccc2[C@@H]1c1ccc(F)cc1` [Compound 2051], < 5.00. Same read-out and setting: the result for `COC(=O)c1ccc2c(c1)CCN(C(=O)NCC13CCN(CC1)CC3)[C@@H]2c1ccc(F)cc1` [Compound 2069] reads 5.38; that for `O=C(NCc1ccncc1)N1CCc2ccccc2[C@@H]1c1ccc(F)cc1` [Compound 2152], 5.19; that for `O=C(OCC12CCN(CC1)CC2)N1CCc2ccccc2[C@@H]1c1ccc(OCc2ncccn2)cc1` [Compound 2155], < 5.00. On to `CNC(=O)c1ccc2c(c1)CCN(C(=O)NCC13CCN(CC1)CC3)[C@H]2c1ccc(F)cc1` [Compound 2070], for which the pEC50 was 5.44. The same measure, in the same setting: the result for `CN1CCC(OC(=O)N2CCc3ccccc3[C@@H]2c2ccc(F)cc2)(C(F)(F)F)CC1` [Compound 2128, 1-methyl-4-(trifluoromethyl)piperidin-4-yl (S)-1-(4-fluorophenyl)-3,4-dihydroisoquinoline-2(1H)-carboxylate] reads 5.12; that for `C#CCOc1ccc2c(c1)CCN(C(=O)N[C@@H]1CN3CCC1CC3)[C@@H]2c1ccc(F)cc1` [Compound 2064], < 5.00.

The same experiment, now with this note: Mus musculus, BV-2, PGRN assay, Table D; secreted mouse PGRN in cell culture medium, ELISA.
The molecule `O=C(O[C@H]1CNCCOC1)N1CCc2ccccc2[C@@H]1c1ccc(F)cc1` [Compound 2263] gave a pEC50 of 5.89. The same measure, in the same setting: the result for `NC[C@@H]1CCN(C(=O)N2CCc3ccccc3[C@@H]2c2ccc(F)cc2)C1` [Compound 2279, ((S)-3-(aminomethyl)pyrrolidin-1-yl)((S)-1-(4-fluorophenyl)-3,4-dihydroisoquinolin-2(1H)-yl)methanone] reads 6.37; that for `CN1C[C@H](N(C)C(=O)N2CCc3ccccc3[C@@H]2c2ccc(F)cc2)C(F)(F)C1` [Compound 2299, (S)—N—((S)-4,4-difluoro-1-methylpyrrolidin-3-yl)-1-(4-fluorophenyl)-N-methyl-3,4-dihydroisoquinoline-2(1H)-carboxamide], < 5.00; that for `O=C(OC[C@@H]1CCN1)N1CCc2ccccc2[C@@H]1c1ccc(F)cc1` [Compound 2239, (S)-(S)-azetidin-2-ylmethyl 1-(4-fluorophenyl)-3,4-dihydroisoquinoline-2(1H)-carboxylate], 5.94.

On to `NC[C@@H]1CN(C(=O)N2CCc3ccccc3[C@@H]2c2ccc(F)cc2)CCO1` [Compound 2302, ((R)-2-(aminomethyl)morpholino)((S)-1-(4-fluorophenyl)-3,4-dihydroisoquinolin-2(1H)-yl)methanone], for which the pEC50 is 6.80. Same read-out and setting: the same measure for `O=C(O[C@H]1CNCC12CC2)N1CCc2ccccc2[C@@H]1c1ccc(F)cc1` (stereo in doubt) [Compound 2309, 5-azaspiro[2.4]heptan-7-yl-(1 S)-1-(4-fluorophenyl)-3,4-dihydroisoquinoline-2(1H)-carboxylate]: 6.22. On the same count and under the same terms, the same measure for `O=C(O[C@@H]1CNCC1(F)F)N1CCc2ccccc2[C@@H]1c1ccc(F)cc1` [Compound 2242]: 5.40. The same measure, in the same setting: the result for `CC1(C)CNC[C@@H]1OC(=O)N1CCc2ccccc2[C@@H]1c1ccc(F)cc1` [Compound 2291] reads 6.23; that for `O=C(NC[C@H]1CCCN1)N1CCc2ccccc2[C@H]1c1ccc(F)cc1` (single isomer, unassigned) [Compound 2219], 5.21. Turning to `O=C(NCC1CNC[C@@H]1O)N1CCc2ccccc2[C@@H]1c1ccc(F)cc1` (stereo partly drawn) [Compound 2308, (S)-1-(4-fluorophenyl)-N-((cis-4-hydroxypyrrolidin-3-yl)methyl)-3,4-dihydroisoquinoline-2(1H)-carboxamide], the pEC50 is 5.53.

The experiment is the same for the next values; noted with them: PGRN assay, Table C; secreted mouse PGRN in cell culture medium, ELISA.
Regarding `O=C(OC1CNC1)N1CCc2ccccc2[C@@H]1c1ccc(F)cc1` [Compound 2162], the negative-log EC50 (pEC50) is < 5.00. Still for that read-out and setting: the same measure for `O=C(OC1[C@@H]2CC3C[C@@H]1CN(C3)C2)N1CCc2ccccc2[C@@H]1c1ccc(F)cc1` (some centres unmarked) [Compound 2097]: 5.55.

Staying with this experiment, now noted: PGRN assay, Table D; secreted mouse PGRN in cell culture medium, ELISA.
On to `CN(C(=O)N1CCc2ccccc2[C@H]1c1ccc(F)cc1)[C@H]1CCNC1` (single isomer, unassigned) [Compound 2249], for which the pEC50 was < 5.00.

By pEC50 is commonly meant the negative decadic logarithm of the EC50, by convention in mol/L. Low values mean a large EC50, high ones a small EC50.
